Experimental data taken from patent publication US8569292B2, “Cyclic inhibitors of 11β-hydroxysteroid dehydrogenase 1” (Vitae Pharmaceuticals, Inc., priority 2008, dated 2013).

How the values were obtained:
11β-HSD1 [1] = molecular target: T1, 11β-HSD1 (Homo sapiens, UniProt P28845); assay: Biological Test Example 4: microsomal 11β-HSD1 in the presence of 50% human plasma
11β-HSD1 [2] = molecular target: T1, 11β-HSD1; assay: biochemical; settings: for inhibition at 0.1 µM: read-out: Average % inhibition at 100 nM
[3] = Biological Test Example 1 IC50 (nM)
[4] = IC50 Range, Biological Test Example 1

T1 sequence (P28845 whole entry): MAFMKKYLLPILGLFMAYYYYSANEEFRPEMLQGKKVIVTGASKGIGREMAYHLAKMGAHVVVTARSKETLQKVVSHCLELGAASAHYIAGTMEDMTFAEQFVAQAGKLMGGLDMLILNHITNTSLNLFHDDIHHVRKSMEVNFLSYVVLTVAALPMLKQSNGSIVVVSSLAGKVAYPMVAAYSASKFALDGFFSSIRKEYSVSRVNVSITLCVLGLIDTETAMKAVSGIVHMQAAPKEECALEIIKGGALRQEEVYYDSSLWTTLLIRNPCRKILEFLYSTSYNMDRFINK

Row | SMILES | IC50 (11β-HSD1 [1]) | IC50 (11β-HSD1 [2]; [3]) | IC50 (11β-HSD1 [2]; [4]) | inhibition at 0.1 µM (11β-HSD1 [2]) | inhibition at 0.111 µM (11β-HSD1 [2]; read-out: average % inhibition at 111 nM) | Shift (11β-HSD1 [1]; IC50 in Test Example 4 divided by IC50 in Test Example 1) | IC50 (11β-HSD1 [2])
1 | CC1(c2ccccc2)CCN(c2cccc(-c3ccncc3)c2)C(=O)O1 (centres unmarked) [EXAMPLE 33, 6-methyl-6-phenyl-3-(3-(pyridin-4-yl)phenyl)-1,3-oxazinan-2-one] |  | 305 nM | 100 to 1000 nM |  | 37.1% |  | 
2 | C[C@@H](c1ccc(-c2cncc(C(N)=O)n2)cc1)N1CC[C@](CC(C)(C)O)(c2ccc(F)cc2)OC1=O [EXAMPLE 159, 6-(4-{1-[6-(4-Fluoro-phenyl)-6-(2-hydroxy-2-methyl-propyl)-2-oxo-[1,3]oxazinan-3-yl]-ethyl}-phenyl)-pyrazine-2-carboxylic acid amide] | 7.3 nM | 3.3 nM | < 100 nM | 94.6% |  | 2.2 | 
3 | C[C@@H](c1ccc(-c2cncc(C(=O)N(C)C)c2)cc1)N1CC[C@](CCCO)(c2ccc(F)cc2)OC1=O [EXAMPLE 72, 5-(4-((S)-1-((R)-6-(4-fluorophenyl)-6-(3-hydroxypropyl)-2-oxo-1,3-oxazinan-3-yl)ethyl)phenyl)-N,N-dimethylnicotinamide] |  | 43.5 nM | < 100 nM | 64.8% |  |  | 
4 | C[C@@H](c1ccc(-c2ccc[n+]([O-])c2)cc1)N1CC[C@](CCC(N)=O)(c2ccccc2)OC1=O [EXAMPLE 50, 3-(4-((S)-1-((R)-6-(3-amino-3-oxopropyl)-2-oxo-6-phenyl-1,3-oxazinan-3-yl)ethyl)phenyl)pyridine 1-oxide] |  | 29.1 nM |  | 81.2% |  |  | < 100 nM
5 | C[C@@H](c1ccc(-c2cncc(C(N)=O)c2)cc1)N1CC[C@](CCCO)(c2ccc(F)cc2)OC1=O [EXAMPLE 71, 5-(4-((S)-1-((R)-6-(4-fluorophenyl)-6-(3-hydroxypropyl)-2-oxo-1,3-oxazinan-3-yl)ethyl)phenyl)nicotinamide] |  | 44.1 nM | < 100 nM | 68.7% |  |  | 
6 | C=CC[C@]1(c2ccc(F)cc2)CCN([C@@H](C)c2ccc(-c3nnc(C)s3)cc2)C(=O)O1 [EXAMPLE 39, (R)-6-allyl-6-(4-fluorophenyl)-3-((S)-1-(4-(5-methyl-1,3,4-thiadiazol-2-yl)phenyl)ethyl)-1,3-oxazinan-2-one] |  | 5.2 nM | < 100 nM | 73.6% |  |  | 
7 | CC(C)[C@@]1(CC(C)(C)O)CCN([C@@H](C)c2ccc(-c3cnc(C(=O)NC4CC4)nc3)cc2)C(=O)O1 [EXAMPLE 199, N-cyclopropyl-5-(4-((S)-1-((S)-6-(2-hydroxy-2-methylpropyl)-6-isopropyl-2-oxo-1,3-oxazinan-3-yl)ethyl)phenyl)pyrimidine-2-carboxamide] |  | 63.5 nM | < 100 nM | 62.9% |  |  | 
8 | CNC(=O)c1cncc(-c2ccc([C@H](C)N3CC[C@](CCCO)(c4ccc(F)cc4)OC3=O)cc2)c1 [EXAMPLE 73, 5-(4-((S)-1-((R)-6-(4-fluorophenyl)-6-(3-hydroxypropyl)-2-oxo-1,3-oxazinan-3-yl)ethyl)phenyl)-N-methylnicotinamide] |  | 46.9 nM | < 100 nM | 65.3% |  |  | 

Further lines, with some results ahead:

Row | IC50 (11β-HSD1 [1]) | IC50 (11β-HSD1 [2]; [3]) | IC50 (11β-HSD1 [2]; [4]) | inhibition at 0.1 µM (11β-HSD1 [2]) | inhibition at 0.111 µM (11β-HSD1 [2]; read-out: average % inhibition at 111 nM) | Shift (11β-HSD1 [1]; IC50 in Test Example 4 divided by IC50 in Test Example 1) | SMILES | IC50 (11β-HSD1 [2])
9 | 12.9 nM | 0.9 nM | < 100 nM | 94.3% |  |  | C[C@@H](c1ccc(-c2ccccn2)cc1)N1CC[C@](CCO)(c2ccccc2)OC1=O [EXAMPLE 85, (S)-6-(2-hydroxyethyl)-6-phenyl-3-((S)-1-(4-(pyridin-2-yl)phenyl)ethyl)-1,3-oxazinan-2-one] | 
10 |  | 12.2 nM | < 100 nM | 83.8% |  |  | C[C@@H](c1ccc(-c2ncc(C(C)(C)O)cn2)cc1)N1CC[C@](CC(C)(C)O)(c2ccccc2)OC1=O [EXAMPLE 29, (S)-6-(2-hydroxy-2-methylpropyl)-3-((S)-1-(4-(5-(2-hydroxypropan-2-yl)pyrimidin-2-yl)phenyl)ethyl)-6-phenyl-1,3-oxazinan-2-one] | 
11 |  | 1 nM | < 100 nM | 92.4% |  |  | C[C@@H](c1ccc(-c2ccc(OCC(C)(C)O)nc2)cc1)N1CC[C@](CC(C)(C)O)(c2ccccc2)OC1=O [EXAMPLE 198, (S)-3-((S)-1-(4-(6-(2-hydroxy-2-methylpropoxy)pyridin-3-yl)phenyl)ethyl)-6-(2-hydroxy-2-methylpropyl)-6-phenyl-1,3-oxazinan-2-one] | 
12 |  | 0.8 nM | < 100 nM | 93.4% |  |  | C=CC[C@]1(c2ccccc2)CCN([C@@H](C)c2ccc(-c3cncc(F)c3)cc2)C(=O)O1 [EXAMPLE 46, (R)-6-allyl-3-((S)-1-(4-(5-fluoropyridin-3-yl)phenyl)ethyl)-6-phenyl-1,3-oxazinan-2-one] | 
13 |  | 28.3 nM | < 100 nM | 76.9% |  |  | Cc1cc(-c2ccc([C@H](C)N3CC[C@](CCC(C)(C)O)(c4ccc(F)cc4)OC3=O)cc2)ccn1 [EXAMPLE 79, (R)-6-(4-fluorophenyl)-6-(3-hydroxy-3-methylbutyl)-3-((S)-1-(4-(2-methylpyridin-4-yl)phenyl)ethyl)-1,3-oxazinan-2-one] | 
14 |  | 9.2 nM | < 100 nM | 88% |  |  | Cc1cc(-c2ccc([C@H](C)N3CC[C@](CCCN4CCCC4=O)(c4ccccc4)OC3=O)cc2)ccn1 [EXAMPLE 104, (R)-3-((S)-1-(4-(2-methylpyridin-4-yl)phenyl)ethyl)-6-(3-(2-oxopyrrolidin-1-yl)propyl)-6-phenyl-1,3-oxazinan-2-one] | 
15 |  | 99.6 nM | < 100 nM | 49.7% |  |  | C[C@@H](c1ccc(-c2cncc(F)c2)cc1)N1CC[C@](CCC(=O)O)(c2ccc(F)cc2)OC1=O [EXAMPLE 70, 3-((R)-6-(4-fluorophenyl)-3-((S)-1-(4-(5-fluoropyridin-3-yl)phenyl)ethyl)-2-oxo-1,3-oxazinan-6-yl)propanoic acid] | 
16 |  | 85.1 nM | < 100 nM | 50% |  |  | C[C@@H](c1ccc(-c2ccc[n+]([O-])c2)cc1)N1CC[C@](CCC(N)=O)(c2ccc(F)cc2)OC1=O [EXAMPLE 68, 3-(4-((S)-1-((R)-6-(3-amino-3-oxopropyl)-6-(4-fluorophenyl)-2-oxo-1,3-oxazinan-3-yl)ethyl)phenyl)pyridine 1-oxide] | 
17 |  | 0.6 nM | < 100 nM |  |  |  | COc1cc(-c2ccc([C@H](C)N3CC[C@](CC(C)(C)O)(c4ccccc4)OC3=O)cc2)ccn1 [EXAMPLE 210, (S)-6-(2-hydroxy-2-methylpropyl)-3-((S)-1-(4-(2-methoxypyridin-4-yl)phenyl)ethyl)-6-phenyl-1,3-oxazinan-2-one] | 
18 |  | > 100 nM | > 100 nM | 13.7% |  |  | Cc1ncc(-c2ccc([C@H](C)N3CC[C@](CCc4nnc(C)o4)(c4ccccc4)OC3=O)cc2)cn1 [EXAMPLE 18, (R)-6-(2-(5-methyl-1,3,4-oxadiazol-2-yl)ethyl)-3-((S)-1-(4-(2-methylpyrimidin-5-yl)phenyl)ethyl)-6-phenyl-1,3-oxazinan-2-one] | 
19 |  | 0.6 nM | < 100 nM | 99.3% |  |  | Cc1cc(-c2ccc([C@H](C)N3CC[C@](CCCO)(c4ccc(F)cc4)OC3=O)cc2)cc(C)n1 [EXAMPLE 81, (R)-3-((S)-1-(4-(2,6-dimethylpyridin-4-yl)phenyl)ethyl)-6-(4-fluorophenyl)-6-(3-hydroxypropyl)-1,3-oxazinan-2-one] | 
